Measurements as given in patent US20260184725A1, “CYCLIC 2-AMINOPYRIMIDINE COMPOUND AND PHARMACEUTICAL COMPOSITION AND USE THEREOF” (SHANGHAI INSTITUTE OF ORGANIC CHEMISTRY, CHINESE ACADEMY OF …, priority 2023, published 2026).
Where two headings read alike, the source gives them in different places.

Assays:
BaF3 parent cell = test: CCK-8 cell proliferation, BaF3 parent cell; type: cell-based; conditions: Mus musculus, read-out: Average value of IC50 of inhibition against cells growth, BaF3 parent cell
Description: (§1) Ba/F3 cells were obtained from Deutsche Sammlung von Mikroorganismen und Zellkulturen GmbH (DSMZ). Ba/F3 cells stably expressing EGFR19del/T790M/C797S or EGFR L858R/T790M/C797S were generated by infecting parental cells with corresponding retroviruses. PC-9-OR was a tumor cell model obtained by simultaneously knocking in T790M and C797S mutations into 19del-activating mutation-dependent PC-9 tumor cells using CRISPR technology. This model, which proliferated dependent on EGFR19del/T790M/C797S resistance mutation, was used to evaluate the inhibitory activity of compounds against EGFR19del/T790M/C797S resistance mutants (Cancer Science. 2022; 113:709-720). All cells used in the study were verified by short tandem repeat (STR) analysis conducted by Genesky.
(§2) Tumor cell viability was assessed using a CCK-8 cell counting kit (A311-01/02, Vazyme, Nanjing, China). Cells were seeded at a density of 3000 cells per well into 96-well plates and cultured overnight. Subsequently, the cells were treated with compounds of different concentrations and incubated for 72 hours. After 72 hours, 10 μL of CCK-8 solution was added to each well. The plates were then returned to the incubator and incubated at 37° C. for 2 hours. The absorbance was measured at 450 nm using a microplate reader. A calibration curve was constructed using data obtained from wells containing known numbers of viable cells.

[1] = molecular target: BaF3-EGFR (19del/T790M/C797S) (Homo sapiens, UniProt P00533, T790M/C797S, cells depend on it, form not given); test: CCK-8 cell proliferation, BaF3-EGFR(19del/T790M/C797S); type: cell-based; conditions: CCK-8, 72 hours; read-out: Average value of IC50 of inhibition against EGFR-mutant cells growth, BaF3-EGFR (19del/T790M/C797S)
Sequence of BaF3-EGFR (19del/T790M/C797S) (P00533 with tags, fused parts or gaps DEL746-750/T790M/C797S, form open): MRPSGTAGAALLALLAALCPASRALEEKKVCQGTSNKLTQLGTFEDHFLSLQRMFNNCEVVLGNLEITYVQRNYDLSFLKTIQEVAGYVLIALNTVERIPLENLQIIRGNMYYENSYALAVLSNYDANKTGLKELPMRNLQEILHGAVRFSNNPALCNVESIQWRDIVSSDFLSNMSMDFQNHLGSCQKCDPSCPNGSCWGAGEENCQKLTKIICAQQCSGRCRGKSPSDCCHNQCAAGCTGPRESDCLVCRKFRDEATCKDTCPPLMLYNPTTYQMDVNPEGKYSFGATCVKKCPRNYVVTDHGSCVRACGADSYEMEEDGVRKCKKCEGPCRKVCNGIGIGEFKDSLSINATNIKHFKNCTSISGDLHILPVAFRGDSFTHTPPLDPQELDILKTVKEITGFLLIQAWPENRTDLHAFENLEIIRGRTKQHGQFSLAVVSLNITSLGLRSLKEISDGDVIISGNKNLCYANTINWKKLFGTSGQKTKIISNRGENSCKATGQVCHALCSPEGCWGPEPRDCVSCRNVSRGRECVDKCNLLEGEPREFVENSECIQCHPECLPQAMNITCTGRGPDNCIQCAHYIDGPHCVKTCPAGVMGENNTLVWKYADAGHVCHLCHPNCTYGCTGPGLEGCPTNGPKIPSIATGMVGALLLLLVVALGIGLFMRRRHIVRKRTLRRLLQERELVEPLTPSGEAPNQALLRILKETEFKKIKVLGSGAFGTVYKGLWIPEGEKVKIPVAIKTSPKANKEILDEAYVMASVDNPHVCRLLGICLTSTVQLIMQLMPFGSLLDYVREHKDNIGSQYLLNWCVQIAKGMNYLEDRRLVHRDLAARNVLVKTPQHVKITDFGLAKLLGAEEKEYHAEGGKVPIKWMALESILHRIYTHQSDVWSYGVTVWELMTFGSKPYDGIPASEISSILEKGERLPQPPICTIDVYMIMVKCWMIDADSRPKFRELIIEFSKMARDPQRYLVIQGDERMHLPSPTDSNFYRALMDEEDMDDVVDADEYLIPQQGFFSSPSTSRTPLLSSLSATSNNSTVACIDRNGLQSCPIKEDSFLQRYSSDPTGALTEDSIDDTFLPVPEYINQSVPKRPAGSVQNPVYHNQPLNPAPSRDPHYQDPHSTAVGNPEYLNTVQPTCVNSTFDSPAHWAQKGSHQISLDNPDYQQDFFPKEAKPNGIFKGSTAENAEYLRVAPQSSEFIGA
Protocol: (§3) Ba/F3 cells were obtained from Deutsche Sammlung von Mikroorganismen und Zellkulturen GmbH (DSMZ). […] All cells used in the study were verified by short tandem repeat (STR) analysis conducted by Genesky.
as §2

[2] = system: PC-9-OR (19del/T790M/C797S); test: CCK-8 cell proliferation, PC-9-OR; type: cell-based; conditions: PC9-OR, read-out: Average value of IC50 of inhibition against EGFR-mutant cells growth, PC-9-OR (19del/T790M/C797S)
Description: as §1, §2

[3] = molecular target: BaF3-EGFR (L858R/T790M/C797S) (Homo sapiens, UniProt P00533, T790M/C797S/L858R, cells depend on it); test: CCK-8 cell proliferation, BaF3-EGFR(L858R/T790M/C797S); type: cell-based; conditions: CCK-8, 72 hours; read-out: Average value of IC50 of inhibition against EGFR-mutant cells growth, BaF3-EGFR (L858R/T790M/C797S)
Protocol: as §3, §2

EGFR^WT = molecular target: T1, EGFR^WT (Homo sapiens, UniProt P00533); test: ELISA kinase activity inhibition, wild-type EGFR; type: biochemical; conditions: ATP 5 μM, read-out: The average IC50 value (nM) for inhibiting the activity of different tyrosine kinases, EGFR^WT
T1 construct: purchased Eurofins
T1 sequence (P00533 25-1210): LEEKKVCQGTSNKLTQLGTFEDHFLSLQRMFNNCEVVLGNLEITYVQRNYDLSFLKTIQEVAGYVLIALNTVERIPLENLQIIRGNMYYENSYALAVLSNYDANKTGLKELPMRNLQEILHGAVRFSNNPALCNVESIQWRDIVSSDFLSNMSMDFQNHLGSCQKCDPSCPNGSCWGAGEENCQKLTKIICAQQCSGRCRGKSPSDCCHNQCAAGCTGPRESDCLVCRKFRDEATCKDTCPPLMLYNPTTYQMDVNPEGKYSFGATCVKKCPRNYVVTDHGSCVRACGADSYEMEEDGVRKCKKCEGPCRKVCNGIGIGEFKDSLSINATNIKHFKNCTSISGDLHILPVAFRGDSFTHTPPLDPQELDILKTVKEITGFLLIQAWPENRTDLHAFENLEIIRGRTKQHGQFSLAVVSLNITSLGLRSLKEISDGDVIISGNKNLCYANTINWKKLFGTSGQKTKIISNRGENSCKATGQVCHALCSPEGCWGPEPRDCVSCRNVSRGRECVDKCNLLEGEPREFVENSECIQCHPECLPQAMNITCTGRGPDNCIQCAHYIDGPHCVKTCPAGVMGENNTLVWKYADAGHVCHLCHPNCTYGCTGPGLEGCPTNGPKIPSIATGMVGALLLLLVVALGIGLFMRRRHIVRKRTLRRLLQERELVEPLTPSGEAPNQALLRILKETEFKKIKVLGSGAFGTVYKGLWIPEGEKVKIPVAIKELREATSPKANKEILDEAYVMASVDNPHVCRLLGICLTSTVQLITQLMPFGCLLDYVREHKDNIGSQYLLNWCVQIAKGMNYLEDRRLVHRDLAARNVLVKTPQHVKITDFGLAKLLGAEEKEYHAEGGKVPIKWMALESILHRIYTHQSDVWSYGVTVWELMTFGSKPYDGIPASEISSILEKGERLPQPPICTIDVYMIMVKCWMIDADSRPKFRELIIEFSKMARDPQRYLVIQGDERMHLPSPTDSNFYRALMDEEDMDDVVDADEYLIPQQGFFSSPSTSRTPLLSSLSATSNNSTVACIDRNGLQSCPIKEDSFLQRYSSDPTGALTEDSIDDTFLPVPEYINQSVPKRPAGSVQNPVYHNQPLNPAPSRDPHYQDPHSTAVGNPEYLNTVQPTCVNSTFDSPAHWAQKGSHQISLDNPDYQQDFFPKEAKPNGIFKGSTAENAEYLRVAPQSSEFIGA
Protocol: (§4) EGFR (WT) is a wild-type epidermal growth factor receptor.
(§5) Enzyme-Linked Immunosorbent Assay (ELISA) was used to detect the inhibitory effect of compounds on kinase activity.
(§6) The main experimental steps were as follows: Enzyme reaction substrate Poly (Glu, Tyr)4:1 was diluted with potassium free PBS (10 mM sodium phosphate buffer, 150 mM NaCl, pH 7.2-7.4) to 20 μg/mL, and reacted at 37° C. for 12 hours to 16 hours to coat the enzyme-linked immunosorbent assay plate. ATP solution (final concentration 5 μM) diluted with reaction buffer (50 mM HEPES pH 7.4, 50 mM MgCl2, 0.5 mM MnCl2, 0.2 mM Na3VO4, 1 mM DTT) was added to each well, followed by the test compound or solvent control, then the kinase reaction was initiated and the plate was shaken at 37° C. for 1 hour. The plate was washed three times with T-PBS, then added antibody PY99. The plate was shaken at 37° C. for 0.5 hours. After washing the plate with T-PBS, added horseradish peroxidase-labeled IgG and shaken at 37° C. for 0.5 hours. After washing the plate again, added 2 mg/mL of OPD colorimetric solution and incubated at 25° C. in the dark for 1 minutes to 10 minutes. […] The IC50 values were obtained from the inhibition curve analysis.

EGFR^L858R/T790M/C797S = EGFR^L858R/T790M/C797S (Homo sapiens, UniProt P00533, C797S/L858R/T790M); test: ELISA kinase activity inhibition, EGFR L858R/T790M/C797S; type: biochemical; conditions: ATP 5 μM, read-out: The average IC50 value (nM) for inhibiting the activity of different tyrosine kinases, EGFR^L858R/T790M/C797S
Sequence of EGFR^L858R/T790M/C797S (P00533 25-1210 T790M/C797S/L858R): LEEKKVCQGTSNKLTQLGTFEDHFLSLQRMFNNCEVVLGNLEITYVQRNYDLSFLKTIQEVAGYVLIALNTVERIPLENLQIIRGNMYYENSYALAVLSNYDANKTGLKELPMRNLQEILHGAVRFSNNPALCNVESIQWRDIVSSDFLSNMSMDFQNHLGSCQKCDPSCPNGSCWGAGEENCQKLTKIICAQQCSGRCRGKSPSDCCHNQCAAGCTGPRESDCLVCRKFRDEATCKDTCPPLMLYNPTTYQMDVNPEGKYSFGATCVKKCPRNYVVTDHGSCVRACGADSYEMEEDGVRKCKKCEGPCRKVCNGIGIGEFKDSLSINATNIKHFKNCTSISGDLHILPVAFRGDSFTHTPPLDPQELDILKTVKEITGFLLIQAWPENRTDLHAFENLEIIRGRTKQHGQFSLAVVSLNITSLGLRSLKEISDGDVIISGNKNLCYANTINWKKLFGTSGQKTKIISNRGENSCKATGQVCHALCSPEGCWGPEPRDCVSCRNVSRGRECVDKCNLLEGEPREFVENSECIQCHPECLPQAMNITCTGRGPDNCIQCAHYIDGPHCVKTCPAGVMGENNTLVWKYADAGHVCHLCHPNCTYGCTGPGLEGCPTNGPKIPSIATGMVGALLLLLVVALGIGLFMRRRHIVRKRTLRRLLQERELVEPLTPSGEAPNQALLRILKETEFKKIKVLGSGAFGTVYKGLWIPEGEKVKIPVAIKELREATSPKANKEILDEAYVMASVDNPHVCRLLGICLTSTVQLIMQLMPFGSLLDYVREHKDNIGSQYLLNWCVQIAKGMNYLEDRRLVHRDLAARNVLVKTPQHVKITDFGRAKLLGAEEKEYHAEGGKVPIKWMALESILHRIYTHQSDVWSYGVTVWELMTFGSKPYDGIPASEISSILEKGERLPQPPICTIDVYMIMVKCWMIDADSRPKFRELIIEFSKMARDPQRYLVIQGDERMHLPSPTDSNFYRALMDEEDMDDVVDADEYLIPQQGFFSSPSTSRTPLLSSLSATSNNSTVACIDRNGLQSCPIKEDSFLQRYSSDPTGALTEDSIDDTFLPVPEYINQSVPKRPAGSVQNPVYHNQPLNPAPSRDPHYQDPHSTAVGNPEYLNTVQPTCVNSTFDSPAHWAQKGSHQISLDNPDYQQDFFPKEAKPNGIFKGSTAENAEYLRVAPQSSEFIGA
Protocol: as §5, §6

EGFR^19del/T790M/C797S = molecular target: T2, EGFR^19del/T790M/C797S (Homo sapiens, UniProt P00533, T790M/C797S, form not given); test: ELISA kinase activity inhibition, EGFR 19del/T790M/C797S; type: biochemical; conditions: ATP 5 μM, read-out: The average IC50 value (nM) for inhibiting the activity of different tyrosine kinases, EGFR^19del/T790M/C797S
T2 construct: fused on or other part: Probably a GST tag on the cytoplasmic fragment, as in the vendor's product
T2 sequence (P00533 with tags, fused parts or gaps DEL746-750/T790M/C797S, form open): as the sequence (P00533 with tags, fused parts or gaps DEL746-750/T790M/C797S, form open) above
Protocol: as §4, §5, §6

[4] = Pharmacokinetic parameters in rats; type: in vivo; conditions: male, Sprague-Dawley, plasma, rat
Protocol: Sprague-Dawley rats (males, 3 per group), weighing 180 g to 220 g, were administered test compounds intravenously and orally at doses of 1 mg/kg and 5 mg/kg, respectively. The compounds were dissolved in a mixed solvent (5% DMSO+10% Solutol+85% PBS) for intravenous injection. 0.5% CMC-Na solution (800 cps to 1200 cps) was used as a suspension agent for oral administration. At designated time points, 0.2 mL of blood samples were collected via the jugular vein and placed into tubes containing K2-EDTA, stored on ice, and then centrifuged. Sampling intervals for the injection group were 0.083, 0.25, 0.5, 1, 2, 4, 8, and 24 hours, while for the oral group, sampling intervals were 0.25, 0.5, 1, 2, 4, 6, 8, and 24 hours. The blood samples were centrifuged at 6800 g for 6 minutes at 2° C. to 8° C. within 1 hour after collection and stored frozen at approximately −80° C. Subsequently, 200 μL of MeOH was used to precipitate 20 μL of plasma samples containing 100 ng/mL IS. The mixture was vortexed for 1 minute and then centrifuged at 18000 g for 7 minutes. 200 μL of the supernatant was transferred to a 96-well plate, and 1 μL of the supernatant sample was injected for LC-MS/MS analysis. Finally, Phoenix WinNonlin7.0 software was used to calculate the pharmacokinetic (PK) parameters.

GI50 [1] [nM]	GI50 [3] [nM]	IC50 (EGFR^WT) [nM]	IC50 (BaF3 parent cell; BaF3, CCK-8, 72 hours) [nM]	IC50 (EGFR^L858R/T790M/C797S) [nM]	IC50 (EGFR^19del/T790M/C797S) [nM]	Structure (SMILES)	also measured
70	74	> 1000	217	4.9	6.3	CCS(=O)(=O)n1cc2c3ccc(cc31)OCCCn1cc(cn1)-c1cc(ccc1N1CCOCC1)Nc1ncc(Cl)c-2n1 [HC871, (Z)-2^5-Chloro-1^1-(ethylsulfonyl)-4^4-morpholino-1^1H,5^1H-9-oxa-3-aza-1(3,6)-indola-2(4,2)-pyrimidina-5(4,1)-pyrazola-4(1,3)-benzenacyclononaphane]	IC50 ([2]; CCK-8, 72 hours): 85 nM
170	336	111	950	0.4	4.3	CCS(=O)(=O)n1cc2c3ccc(cc31)OCCCn1cc(cn1)-c1cc(ccc1N1CCOCC1)Nc1nccc-2n1 [HC950, 1^1-ethylsulfonyl-4^6-methyl-4^4-(4-methylpiperazin-1-yl)-1^1H,5^1H-9-oxa-3-aza-1(3,6)-indole-2(4,2)-pyrimidine-5(4,1)-pyrazole-4(1,3)-benzenacyclononaphane]	IC50 ([2]; CCK-8, 72 hours): 149 nM
371	455	186	3180	11.8	7.4	CCOc1cc(N2CCOCC2)c2cc1Nc1nccc(n1)-c1cn(S(=O)(=O)CC)c3cc(ccc13)OCCCn1cc-2cn1 [HC9596, (Z)-4^6-ethoxy-1^1-ethylsulfonyl-4^4-morpholino-1^1H,5^1H-9-oxa-3-aza-1(3,6)-indole-2(4,2)-pyrimidine-5(4,1)-pyrazole-4(1,3)-benzenacyclononaphane]	
		> 1000		> 1000	> 1000	CCS(=O)(=O)n1cc2c3ccc(cc31)OCCCn1cc(cn1)-c1cc(cc(CCC(C)(C)C)c1N1CCOCC1)Nc1ncc(Cl)c-2n1 [HC90042, 2^5-chloro-4^5-(E)-3,3-dimethylbutyl)-1^1-ethylsulfonyl-4^4-morpholin-1^1H,5^1H-9-oxa-3-aza-1(3,6)-indole-2(4,2)-pyrimidin-5(4,1)-pyrazolol-4 (1,3)-benzenacyclononaphane]	

More lines, now with the values behind:

Structure (SMILES)	GI50 [1] [nM]	GI50 [3] [nM]	IC50 (EGFR^WT) [nM]	IC50 (BaF3 parent cell; BaF3, CCK-8, 72 hours) [nM]	IC50 (EGFR^L858R/T790M/C797S) [nM]	IC50 (EGFR^19del/T790M/C797S) [nM]	also measured
COc1cc(N2CCC(N3CCN(C)CC3)CC2)ccc1Nc1ncc(Cl)c(Nc2ccccc2P(C)(C)=O)n1 [Brigatinib, reference compound]	221	777					IC50 (BaF3 parent cell; BaF3, 72 h): 1480 nM; IC50 ([2]; 72 h): 1450 nM
CCc1cc(N2CCOCC2)c2cc1Nc1nccc(n1)-c1cn(S(=O)(=O)CC)c3cc(ccc13)OCCCn1ccc-2n1 [FBH-3-47, (Z)-4^6-ethyl-1^1-(ethylsulfonyl)-4^4-morpholino-1^1H,5^1H-9-oxa-3-aza-1(3,6)-indole-2(4,2)-pyrimidine-5(4,1)-pyrazol-4(1,3)-benzenacyclononaphane]	229	327	> 1000	2230	54.8	23.3	
C=CC(=O)Nc1cc(Nc2nccc(-c3cn(C)c4ccccc34)n2)c(OC)cc1N(C)CCN(C)C [Osimertinib, reference compound]				2370			IC50 ([2]; CCK-8, 72 hours): 2100 nM
CCS(=O)(=O)n1cc2c3ccc(cc31)OCC(C)Cn1cc(cn1)-c1cc(c(OC)cc1N1CCOCC1)Nc1nccc-2n1 (stereo not shown) [WQX-1-80, (Z)-1^1-(ethylsulfonyl)-4^6-Methoxy-7-methyl-4^4-morpholino-1^1H,5^1H-9-oxa-3-aza-1(3,6)-indole-2(4,2)-pyrimidin-5(4,1)-pyrazol-4(1,3)-benzenacyclononaphane]	311	734	> 1000	1870	53.2	23.3	
CCS(=O)(=O)n1cc2c3ccc(cc31)OC(C)CCn1cc(cn1)-c1cc(c(OC)cc1N1CCOCC1)Nc1nccc-2n1 (stereo not shown) [WQX-1-86, (Z)-1^1-(ethylsulfonyl)-4^6-methoxy-8-methyl-4^4-morpholino-1^1H,5^1H-9-oxa-3-aza-1(3,6)-indole-2(4,2)-pyrimidin-5(4,1)-pyrazol-4(1,3)-benzenacyclononaphane]	465		> 1000	2000	12.6	8.2	
CCS(=O)(=O)n1cc2c3ccc(cc31)OCC1(CC1)Cn1cc(cn1)-c1cc(c(OC)cc1N1CCOCC1)Nc1nccc-2n1 [WQX-1-87, (Z)-1′-(ethylsulfonyl)-6′-methoxy-4′-morpholino spiro[cyclopropane-7′-9-oxa-3-aza-1(3,6)-indole-2(4,2)-pyrimidin-5(4,1)-pyrazol-4(1,3)-benzenacyclononaphane]]			> 1000		63.3	33	
CCS(=O)(=O)n1cc2c3ccc(cc31)OCCCn1cc(cn1)-c1cc(c(OC)cc1CN1CCOCC1)Nc1nccc-2n1 [WQX-2-35, (Z)-1^1-(ethylsulfonyl)-4^6-methoxy-4^4-(morpholinomethyl)-1^1H,5^1H-9-oxa-3-aza-1(3,6)-indole-2(4,2)-pyrimidine-5(4,1)-pyrazole-4(1,3)-benzocyclononane]			141		14.1	1	
CCS(=O)(=O)n1cc2c3ccc(cc31)OCCCCCCOc1cc(ccc1N1CCOCC1)Nc1ncc(Cl)c-2n1 [reference compound]			190		14.4	9	
CCS(=O)(=O)n1cc2c3ccc(cc31)OCCCCCCOc1cc(c(C)cc1N1CCOCC1)Nc1ncc(Cl)c-2n1 [reference compound]							Cmax ([4]; IV 1 mg/kg): 2420 ± 165 ng/mL; clearance ([4]; IV 1 mg/kg): 16.2 ± 1.4 mL/min/kg; half-life ([4]; IV 1 mg/kg): 1.35 ± 0.18 h; Cmax ([4]; PO 5 mg/kg): 135 ng/mL; half-life ([4]; PO 5 mg/kg): 2.57 h; bioavailability ([4]; PO 5 mg/kg, read-out: F (oral bioavailability)): 11.9%
